The subject of the test is CD8F1 mice, subcutaneous mammary adenocarcinoma, T/C%. The experiment in a line: NCI In Vivo Anticancer Drug Screen. Data for tumor model Mammary Adenocarcinoma CD8F1 (subcutaneous) in CD8F1. Particulars: higher = larger tumour. In short, it runs like this: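 Tumor-bearing mice, transplantable model; readout survival or tumor size; value = treated (T) / vehicle control (C).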

Setting [1] is: endpoint: median tumor weight change, dose: 125.0 mg/kg/injection, schedule: Q01DX001 (ip), vehicle: saline.
Where [2] appears, read: endpoint: median tumor weight change, dose: 250.0 mg/kg/injection, schedule: Q01DX001 (ip), vehicle: saline.
Where [3] appears, read: endpoint: median tumor weight (est.), dose: 12.5 mg/kg/injection, schedule: Q07DX005 (ip), vehicle: suspension in saline.
Setting [4] is: endpoint: median tumor weight (est.), dose: 25.0 mg/kg/injection, schedule: Q07DX005 (ip), vehicle: suspension in saline.
Setting [5] is: endpoint: median tumor weight (est.), dose: 50.0 mg/kg/injection, schedule: Q07DX005 (ip), vehicle: suspension in saline.
[6] abbreviates: endpoint: median tumor weight (est.), dose: 100.0 mg/kg/injection, schedule: Q07DX005 (ip), vehicle: suspension in saline.
The mark [7] stands for this setting: endpoint: median tumor weight (est.), dose: 200.0 mg/kg/injection, schedule: Q07DX005 (ip), vehicle: suspension in saline.
Setting [8] is: endpoint: median tumor weight (est.), dose: 400.0 mg/kg/injection, schedule: Q07DX005 (ip), vehicle: suspension in saline.

The structures appear in SMILES notation. Several values for one entry are separate records, joined by “and”; a condition that tells them apart may be missing. Equal entries are not always repeated. Inconclusive results are not listed.

`CN(CCN(C)C(=O)CCOS(C)(=O)=O)C(=O)CCOS(C)(=O)=O`: the T/C runs as follows: (endpoint: median tumor weight change, dose: 62.0 mg/kg/injection, schedule: Q01DX001 (ip), vehicle: saline) 67 % of control; (endpoint: median tumor weight change, dose: 62.5 mg/kg/injection, schedule: Q01DX001 (ip), vehicle: saline with Tween-80) 43 % of control; (endpoint: median tumor weight change, dose: 62.5 mg/kg/injection, schedule: Q01DX001 (ip), vehicle: suspension in saline) 39 % of control; (endpoint: median tumor weight change, dose: 125.0 mg/kg/injection, schedule: Q01DX001 (ip), vehicle: saline with Tween-80) 15 % of control; under setting [1], 3 % of control; (endpoint: median tumor weight change, dose: 125.0 mg/kg/injection, schedule: Q01DX001 (ip), vehicle: suspension in saline) 10 % of control. Further, the T/C is 51 % of control under setting [2] and -17 % of control (endpoint: median tumor weight change, dose: 500.0 mg/kg/injection, schedule: Q01DX001 (ip), vehicle: saline with Tween-80).
Take `Cc1cn(C2CC(F)C(CO)O2)c(=O)[nH]c1=O` (stereo not given): the T/C (endpoint: median tumor weight change, dose: 250.0 mg/kg/injection, schedule: Q01DX001 (ip), vehicle: suspension in saline) is 71 % of control; the T/C (endpoint: median tumor weight change, dose: 500.0 mg/kg/injection, schedule: Q01DX001 (ip), vehicle: suspension in saline) is 69 % of control; the T/C (endpoint: median tumor weight change, dose: 1000.0 mg/kg/injection, schedule: Q01DX001 (ip), vehicle: suspension in saline) was 79 % of control.
Turning to `CCOC(C)C(/C=N/NC(N)=S)=NNC(N)=S` (stereo not given), the T/C reads like this: (endpoint: median tumor weight (est.), dose: 25.0 mg/kg/injection, schedule: Q07DX005 (ip), vehicle: saline with Tween-80) 87 % of control and 109 % of control; (endpoint: median tumor weight (est.), dose: 50.0 mg/kg/injection, schedule: Q07DX005 (ip), vehicle: saline with Tween-80) 85 % of control and 88 % of control; (endpoint: median tumor weight (est.), dose: 100.0 mg/kg/injection, schedule: Q07DX005 (ip), vehicle: saline with Tween-80) 78 % of control and 96 % of control.
For `COC1C(O)CC(OC2CC(OC3CC(O[C@@H]4C(=O)c5c(cc6cc(OC7CC(OC8CC(O)C(O)C(C)O8)C(O)C(C)O7)c(C)c(O)c6c5O)C[C@H]4[C@H](OC)C(=O)[C@@H](O)[C@@H](C)O)OC(C)C3O)OC(C)C2O)OC1C` (stereo not given in full), the T/C (endpoint: median tumor weight (est.), dose: 0.18 mg/kg/injection, schedule: Q07DX005 (ip), vehicle: saline) is 88 % of control; the T/C (endpoint: median tumor weight (est.), dose: 0.75 mg/kg/injection, schedule: Q07DX005 (ip), vehicle: saline) is 24 % of control and 42 % of control.
Take `COc1cccc2c1C(=O)c1c(O)c3c(c(O)c1C2=O)C[C@@](O)(C(=O)CO)C[C@@H]3OC1CC(N(C)C)C(O)C(C)O1` (stereo not given in full): the T/C (endpoint: median tumor weight (est.), dose: 2.67 mg/kg/injection, schedule: Q07DX005 (ip), vehicle: water) is 88 % of control.
In the case of `Cc1cc2nc3[nH]c4ccccc4c3nc2cc1C`, the T/C is, setting by setting: under setting [3], 88 % of control; under setting [4], 52 % of control; under setting [5], 73 % of control; under setting [6], 81 % of control; under setting [7], 88 % of control; under setting [8], 100 % of control.
As for `NC(=O)c1cn(C2OC(CO)C(O)C2O)c2ncnc(N)c12` (stereo not given), the T/C (endpoint: median tumor weight (est.), dose: 1.0 mg/kg/injection, schedule: Q07DX005 (ip), vehicle: suspension in saline) is 63 % of control; the T/C (endpoint: median tumor weight (est.), dose: 2.0 mg/kg/injection, schedule: Q07DX005 (ip), vehicle: suspension in saline) was 27 % of control and 45 % of control; the T/C (endpoint: median tumor weight change, dose: 0.25 mg/kg/injection, schedule: Q01DX001 (ip), vehicle: saline) was 121 % of control; the T/C (endpoint: median tumor weight change, dose: 0.5 mg/kg/injection, schedule: Q01DX001 (ip), vehicle: saline) was 91 % of control; the T/C (endpoint: median tumor weight change, dose: 1.0 mg/kg/injection, schedule: Q01DX001 (ip), vehicle: saline) is 81 % of control; the T/C (endpoint: median tumor weight change, dose: 1.25 mg/kg/injection, schedule: Q01DX001 (ip), vehicle: suspension in saline) was 88 % of control. Besides, the T/C is 107 % of control (endpoint: median tumor weight change, dose: 2.0 mg/kg/injection, schedule: Q01DX001 (ip), vehicle: saline); 102 % of control (endpoint: median tumor weight change, dose: 2.5 mg/kg/injection, schedule: Q01DX001 (ip), vehicle: suspension in saline); 95 % of control (endpoint: median tumor weight change, dose: 4.0 mg/kg/injection, schedule: Q01DX001 (ip), vehicle: saline); 70 % of control (endpoint: median tumor weight change, dose: 5.0 mg/kg/injection, schedule: Q01DX001 (ip), vehicle: suspension in saline); 79 % of control (endpoint: median tumor weight change, dose: 8.0 mg/kg/injection, schedule: Q01DX001 (ip), vehicle: saline).
Regarding `Clc1ccc(C2SC=Cc3ccccc32)cc1` (stereo not given), the T/C (endpoint: median tumor weight change, dose: 62.0 mg/kg/injection, schedule: Q01DX001 (ip), vehicle: Klucel (hydroxypropylcellulose) (HPC)) is 88 % of control; the T/C (endpoint: median tumor weight change, dose: 250.0 mg/kg/injection, schedule: Q01DX001 (ip), vehicle: Klucel (hydroxypropylcellulose) (HPC)) was 50 % of control and 54 % of control and 58 % of control.
Consider `N=C(N)c1ccc(/C=C/c2ccc(C(=N)N)cc2O)cc1`, for which the T/C (endpoint: median tumor weight (est.), dose: 12.5 mg/kg/injection, schedule: Q07DX005 (ip), vehicle: water) was 75 % of control and 76 % of control.
For `O=C(O)O`, the T/C reads like this: (endpoint: median tumor weight (est.), dose: 50.0 mg/kg/injection, schedule: Q07DX005 (ip), vehicle: saline) 104 % of control; (endpoint: median tumor weight (est.), dose: 400.0 mg/kg/injection, schedule: Q07DX005 (ip), vehicle: saline) 72 % of control and 55 % of control.
Take `Nc1ncnc2c1ncn2C1OC(CO)C(O)C1O` (stereo not given): the T/C was 103 % of control (endpoint: median tumor weight (est.), dose: 16.0 mg/kg/injection, schedule: Q07DX005 (ip), vehicle: Klucel (hydroxypropylcellulose) (HPC)); 47 % of control (endpoint: median tumor weight (est.), dose: 37.5 mg/kg/injection, schedule: Q07DX005 (ip), vehicle: saline); 33 % of control (endpoint: median tumor weight (est.), dose: 75.0 mg/kg/injection, schedule: Q07DX005 (ip), vehicle: saline); 83 % of control and 99 % of control (endpoint: median tumor weight (est.), dose: 128.0 mg/kg/injection, schedule: Q07DX005 (ip), vehicle: Klucel (hydroxypropylcellulose) (HPC)); 47 % of control (endpoint: median tumor weight (est.), dose: 150.0 mg/kg/injection, schedule: Q07DX005 (ip), vehicle: saline); 88 % of control (endpoint: median tumor weight (est.), dose: 300.0 mg/kg/injection, schedule: Q07DX005 (ip), vehicle: saline). The T/C reads like this: (endpoint: median tumor weight (est.), dose: 600.0 mg/kg/injection, schedule: Q07DX005 (ip), vehicle: saline) 71 % of control; (endpoint: median tumor weight (est.), dose: 1200.0 mg/kg/injection, schedule: Q07DX005 (ip), vehicle: saline) 60 % of control.
For `Nc1cc2[nH]cnc2c(=O)[nH]1`, the T/C was 83 % of control (endpoint: mean tumor weight, dose: 20.0 mg/kg/injection, schedule: Q07DX006 (ip), vehicle: saline); 50 % of control (endpoint: mean tumor weight, dose: 40.0 mg/kg/injection, schedule: Q07DX006 (ip), vehicle: saline); 76 % of control (endpoint: mean tumor weight, dose: 80.0 mg/kg/injection, schedule: Q07DX006 (ip), vehicle: saline); 56 % of control under setting [3]; 79 % of control under setting [4]; 56 % of control under setting [5]. For the same molecule, the T/C is 80 % of control under setting [6] and 64 % of control under setting [7].
As for `CCCCCC[C@@H](O)C/C=C\CCCCCCCC(=O)OCCO`, the T/C runs as follows: under setting [1], 96 % of control; under setting [2], 91 % of control; (endpoint: median tumor weight change, dose: 500.0 mg/kg/injection, schedule: Q01DX001 (ip), vehicle: saline) 98 % of control; (endpoint: median tumor weight change, dose: 1000.0 mg/kg/injection, schedule: Q01DX001 (ip), vehicle: saline) 103 % of control; (endpoint: median tumor weight change, dose: 2000.0 mg/kg/injection, schedule: Q01DX001 (ip), vehicle: saline) 95 % of control.
`CCOC(=O)c1c[nH]c2oc(/C=N/N3CC(CN4CCOCC4)OC3=O)cc2c1=O` (stereo not given): the T/C reads like this: under setting [3], 107 % of control; under setting [4], 87 % of control; under setting [5], 97 % of control; under setting [6], 155 % of control; under setting [8], 94 % of control.

Source of the values: PubChem BioAssay AID220 (DTP/NCI, 2004).
